# Results published in patent publication US11542259B2, “Compounds for the treatment of kinase-dependent disorders” (Exelixis, Inc., priority 2018, dated 2023).
# pIC50: −log10 of the molar value.
# Legend:
# [1] = biological target: Human Mer (residues R557-E882 with H628Q and R794A) (Homo sapiens (Human), UniProt Q12866); experiment: Human Mer kinase assay (33P radiometric, KinaseProfiler); type: biochemical; settings: 10 μM ATP
# Experimental: (§1) Kinase activity and compound inhibition were investigated using the ^33P-Phosphoryl transfer radiometric kinase assay, performed using the KinaseProfiler™ service of Eurofins Pharma Discovery Services UK Limited. Dose-response experiments were performed using nine compound concentrations in a 96-well microtiter plate. For each assay, all compounds were prepared to a 50× final assay concentration (50 μM) in 100% DMSO, then diluted in a half-log series, with the final top concentration at 1 μM. This working stock of the compound was added to the assay well as the first component in the reaction, followed by the remaining components as detailed in the following assay protocols below. The positive control wells (100% kinase activity) contain all components of the reaction including 2% DMSO (control for solvent effects), except the compound of interest. Blank wells contain all components of the reaction, with the reference inhibitor, staurosporine. This reference compound was used to abolish kinase activity and generated the 0% kinase activity base-line. IC50 values were calculated by nonlinear regression analysis using the sigmoidal dose-response (variable slope) curve fit on XLFit version 5.3 (ID Business Solutions).
# Human Mer (residues R557-E882 with H628Q and R794A, 0.7 nM) was incubated with 8 mM MOPS pH 7.0, 0.2 mM EDTA, 30 mM NaCl, 250 μM GGMEDIYFEFMGGKKK (SEO ID NO. 44). 10 mM magnesium acetate, and 10 μM [γ-^33P-ATP]. The reaction was initiated by the addition of the Mg/ATP mix. After incubation for 40 minutes at room temperature, the reaction was stopped by the addition of phosphoric acid to a concentration of 0.5%. A reaction aliquot of 10 μL was then spotted onto a P30 filtermat and washed four times for 4 minutes in 0.425% phosphoric acid and once in methanol prior to drying and scintillation counting. Incorporated ^33P was measured using the Wallac Microbeta scintillation counter (Perkin Elmer).
# [2] = biological target: Human Met (residues R974-S1390 with A1209G and V1290L) (Homo sapiens, UniProt P08581); experiment: Human Met kinase assay (33P radiometric, KinaseProfiler); type: biochemical; settings: 10 μM ATP, read-out: c-Met IC50
# Experimental: as §1
# Human Met (residues R974-S1390 with A1209G and V1290L, 3.4 nM) was incubated with 8 mM MOPS pH 7.0, 0.2 mM EDTA, 250 μM KKKGQEEEYVFIE (SEO ID NO. 45), 1 mM sodium orthovanadate, 5 mM […], 10 mM magnesium acetate, and 10 μM [γ-33P-ATP]. The reaction was initiated by the addition of the Mg/ATP mix. After incubation for 40 minutes at room temperature, the reaction was stopped by the addition of phosphoric acid to a concentration of 0.5%. A reaction aliquot of […] was then spotted onto a P30 filtermat and washed four times for 4 minutes in 0.425% phosphoric acid and once in methanol prior to drying and scintillation counting. Incorporated 33P was measured using the Wallac Microbeta scintillation counter (Perkin Elmer).
# [3] = biological target: AXL (Homo sapiens (Human), UniProt P30530); experiment: AXL autophosphorylation ELISA in A-172 cells; type: cell-based; settings: cellular, Gas6 stimulated
# Chain of AXL (P30530 26-894): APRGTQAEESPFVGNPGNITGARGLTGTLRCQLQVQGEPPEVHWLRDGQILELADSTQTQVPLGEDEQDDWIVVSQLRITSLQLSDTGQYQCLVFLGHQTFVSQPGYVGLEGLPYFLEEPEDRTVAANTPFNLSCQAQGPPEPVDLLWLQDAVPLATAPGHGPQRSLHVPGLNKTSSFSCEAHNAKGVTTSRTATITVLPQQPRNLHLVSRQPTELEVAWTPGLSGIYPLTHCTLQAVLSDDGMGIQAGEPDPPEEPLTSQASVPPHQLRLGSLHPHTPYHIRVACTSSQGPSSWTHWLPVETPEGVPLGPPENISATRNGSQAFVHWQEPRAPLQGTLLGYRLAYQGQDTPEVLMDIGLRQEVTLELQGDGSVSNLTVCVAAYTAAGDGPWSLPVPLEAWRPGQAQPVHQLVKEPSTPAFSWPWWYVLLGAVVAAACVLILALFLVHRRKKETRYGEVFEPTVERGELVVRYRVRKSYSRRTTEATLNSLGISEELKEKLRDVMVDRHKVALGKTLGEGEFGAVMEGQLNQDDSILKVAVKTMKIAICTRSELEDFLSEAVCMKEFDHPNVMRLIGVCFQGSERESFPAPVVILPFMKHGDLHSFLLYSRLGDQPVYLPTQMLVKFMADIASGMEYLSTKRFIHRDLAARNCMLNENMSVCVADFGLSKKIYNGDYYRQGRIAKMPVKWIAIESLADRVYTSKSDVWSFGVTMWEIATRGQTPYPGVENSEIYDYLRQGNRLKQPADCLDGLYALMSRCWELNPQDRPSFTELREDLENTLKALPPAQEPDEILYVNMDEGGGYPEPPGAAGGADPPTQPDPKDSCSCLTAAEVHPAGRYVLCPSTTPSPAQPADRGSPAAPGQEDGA
# Experimental: A-172 glioblastoma cells (ATCC #CRL-1620) were seeded at 2.5×10^5 cells/well onto 24-well plates (Greiner #662165), in DMEM (Thermo Fisher #11995-040) containing 10% FBS (Thermo Fisher #26140-079), 1% MEM NEAA (Thermo Fisher #11140-050), 1% GlutaMax (Thermo Fisher #35050-061) and 1% Penicillin Streptomycin (Thermo Fisher #15140-122). A-172 cells were incubated at 37° C., 5% CO2 for 24 h and then starved for 24 h in serum-free medium. Test compounds were serially diluted to produce an 8-point dose curve in fresh serum-free medium to a final concentration of 0.3% DMSO (vehicle) and added to the cells and incubated for 1 h. Cells were then stimulated with 1 μg/mL recombinant human Gas6 (R&D Systems #885-GSB-500) for 15 min, washed with cold PBS and immediately lysed with 150 μL of cold 1× lysis buffer [20 mM Tris, 137 mM sodium chloride, 2 mM EDTA, 10% glycerol, 1% NP-40 alternative, 1 mM activated sodium orthovanadate, 1 mM PefaBloc SC (Sigma-Aldrich #11429868001), protease/phosphatase inhibitor tablet (Thermo Fisher #A32959)]. Lysates were collected and 100 μL/well added into the human phospho-AXL DuoSet IC ELISA (R&D Systems #DYC2228-2). Assay was performed according to manufacturer's instructions and sample phospho-AXL concentrations were extrapolated using human phospho-AXL control (R&D Systems #841645) as a standard. Positive control wells (100% activity) contained Gash-stimulated, DMSO-treated cell lysates. Negative control wells (0% activity) contained Gash-stimulated, reference inhibitor-treated cell lysates. IC50 values were calculated by nonlinear regression analysis using a 4-parameter logistic curve fit in ActivityBase XE (IDBS).
# [4] = biological target: Met (Homo sapiens (Human), UniProt P08581); experiment: Met autophosphorylation ELISA in PC-3 cells; type: cell-based; settings: cellular, HGF stimulated, read-out: c-Met IC50
# Chain of Met (P08581 25-1390): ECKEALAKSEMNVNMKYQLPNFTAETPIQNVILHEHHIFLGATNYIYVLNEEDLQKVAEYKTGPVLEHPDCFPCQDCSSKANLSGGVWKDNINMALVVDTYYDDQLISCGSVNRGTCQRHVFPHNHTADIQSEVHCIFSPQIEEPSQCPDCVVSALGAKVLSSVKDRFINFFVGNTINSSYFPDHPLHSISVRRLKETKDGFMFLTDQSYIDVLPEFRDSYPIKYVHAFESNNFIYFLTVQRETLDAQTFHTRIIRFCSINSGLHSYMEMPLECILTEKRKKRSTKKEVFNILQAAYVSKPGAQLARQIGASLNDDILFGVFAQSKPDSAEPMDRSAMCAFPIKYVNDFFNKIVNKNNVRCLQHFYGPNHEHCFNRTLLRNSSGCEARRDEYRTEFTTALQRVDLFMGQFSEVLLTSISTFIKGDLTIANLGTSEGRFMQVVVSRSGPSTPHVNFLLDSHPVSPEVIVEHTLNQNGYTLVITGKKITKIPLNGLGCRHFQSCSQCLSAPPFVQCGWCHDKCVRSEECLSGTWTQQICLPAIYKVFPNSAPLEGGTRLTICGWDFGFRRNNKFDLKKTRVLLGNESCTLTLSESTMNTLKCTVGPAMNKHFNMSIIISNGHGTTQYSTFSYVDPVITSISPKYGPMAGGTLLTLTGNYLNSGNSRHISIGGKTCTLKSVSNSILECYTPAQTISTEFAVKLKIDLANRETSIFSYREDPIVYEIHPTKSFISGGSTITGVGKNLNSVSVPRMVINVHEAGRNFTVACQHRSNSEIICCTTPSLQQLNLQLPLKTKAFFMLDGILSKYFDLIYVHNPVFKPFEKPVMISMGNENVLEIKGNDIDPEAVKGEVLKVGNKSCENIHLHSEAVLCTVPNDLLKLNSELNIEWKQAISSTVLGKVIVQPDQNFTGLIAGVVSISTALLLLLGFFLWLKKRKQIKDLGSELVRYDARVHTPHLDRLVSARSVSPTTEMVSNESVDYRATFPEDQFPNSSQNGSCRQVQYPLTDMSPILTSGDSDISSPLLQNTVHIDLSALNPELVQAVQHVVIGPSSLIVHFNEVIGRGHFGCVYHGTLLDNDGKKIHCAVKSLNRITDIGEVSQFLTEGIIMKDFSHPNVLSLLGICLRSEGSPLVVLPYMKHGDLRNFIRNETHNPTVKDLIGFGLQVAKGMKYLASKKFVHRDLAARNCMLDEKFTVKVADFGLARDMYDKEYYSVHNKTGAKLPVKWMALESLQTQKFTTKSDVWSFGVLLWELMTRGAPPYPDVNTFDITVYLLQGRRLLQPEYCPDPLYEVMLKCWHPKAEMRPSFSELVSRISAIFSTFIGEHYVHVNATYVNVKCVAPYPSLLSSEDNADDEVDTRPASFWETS
# Experimental: PC-3 prostate cancer cells (ATCC #CRL-1435) were seeded at 4×10^4 cells/well onto 24-well plates (Greiner #662165), in DMEM (Thermo Fisher #11995-040) containing 10% FBS (Thermo Fisher #26140-079), 1% MEM NEAA (Thermo Fisher #11140-050), 1% GlutaMax (Thermo Fisher #35050-061), and 1% Penicillin Streptomycin (Thermo Fisher #15140-122). PC-3 cells were incubated at 37° C., 5% CO2 for 24 h and then starved for 3 h in serum-free medium. Test compounds were serially diluted to produce an 8-point dose curve in fresh serum-free medium to a final concentration of 0.3% DMSO (vehicle) and added to the cells and incubated for 1 h. Cells were then stimulated with 100 ng/mL recombinant human HGF (R&D Systems #294-HG-250) for 10 min, washed with cold PBS and immediately lysed with 130 μL of cold 1× lysis buffer [20 mM Tris, 137 mM sodium chloride, 2 mM EDTA, 10% glycerol, 1% NP-40 alternative, 1 mM activated sodium orthovanadate, 1 mM PefaBloc SC (Sigma-Aldrich #11429868001), protease/phosphatase inhibitor tablet (Thermo Fisher #A32959)]. Lysates were clarified by centrifugation and 100 μL/well added into the PathScan phospho-Met (panTyr) Sandwich ELISA (Cell Signaling Technology #7333). Assay was performed according to manufacturer's instructions. Positive control wells (100% activity) contained HGF-stimulated, DMSO-treated cell lysates. Negative control wells (0% activity) contained HGF-stimulated, reference inhibitor-treated cell lysates. IC50 values were calculated by nonlinear regression analysis using a 4-parameter logistic curve fit in ActivityBase XE (IDBS).
# [5] = biological target: KDR (Homo sapiens (Human), UniProt P35968); experiment: KDR autophosphorylation ELISA in HUVEC cells; type: cell-based; settings: cellular, VEGF165 stimulated
# Chain of KDR (P35968 20-1356): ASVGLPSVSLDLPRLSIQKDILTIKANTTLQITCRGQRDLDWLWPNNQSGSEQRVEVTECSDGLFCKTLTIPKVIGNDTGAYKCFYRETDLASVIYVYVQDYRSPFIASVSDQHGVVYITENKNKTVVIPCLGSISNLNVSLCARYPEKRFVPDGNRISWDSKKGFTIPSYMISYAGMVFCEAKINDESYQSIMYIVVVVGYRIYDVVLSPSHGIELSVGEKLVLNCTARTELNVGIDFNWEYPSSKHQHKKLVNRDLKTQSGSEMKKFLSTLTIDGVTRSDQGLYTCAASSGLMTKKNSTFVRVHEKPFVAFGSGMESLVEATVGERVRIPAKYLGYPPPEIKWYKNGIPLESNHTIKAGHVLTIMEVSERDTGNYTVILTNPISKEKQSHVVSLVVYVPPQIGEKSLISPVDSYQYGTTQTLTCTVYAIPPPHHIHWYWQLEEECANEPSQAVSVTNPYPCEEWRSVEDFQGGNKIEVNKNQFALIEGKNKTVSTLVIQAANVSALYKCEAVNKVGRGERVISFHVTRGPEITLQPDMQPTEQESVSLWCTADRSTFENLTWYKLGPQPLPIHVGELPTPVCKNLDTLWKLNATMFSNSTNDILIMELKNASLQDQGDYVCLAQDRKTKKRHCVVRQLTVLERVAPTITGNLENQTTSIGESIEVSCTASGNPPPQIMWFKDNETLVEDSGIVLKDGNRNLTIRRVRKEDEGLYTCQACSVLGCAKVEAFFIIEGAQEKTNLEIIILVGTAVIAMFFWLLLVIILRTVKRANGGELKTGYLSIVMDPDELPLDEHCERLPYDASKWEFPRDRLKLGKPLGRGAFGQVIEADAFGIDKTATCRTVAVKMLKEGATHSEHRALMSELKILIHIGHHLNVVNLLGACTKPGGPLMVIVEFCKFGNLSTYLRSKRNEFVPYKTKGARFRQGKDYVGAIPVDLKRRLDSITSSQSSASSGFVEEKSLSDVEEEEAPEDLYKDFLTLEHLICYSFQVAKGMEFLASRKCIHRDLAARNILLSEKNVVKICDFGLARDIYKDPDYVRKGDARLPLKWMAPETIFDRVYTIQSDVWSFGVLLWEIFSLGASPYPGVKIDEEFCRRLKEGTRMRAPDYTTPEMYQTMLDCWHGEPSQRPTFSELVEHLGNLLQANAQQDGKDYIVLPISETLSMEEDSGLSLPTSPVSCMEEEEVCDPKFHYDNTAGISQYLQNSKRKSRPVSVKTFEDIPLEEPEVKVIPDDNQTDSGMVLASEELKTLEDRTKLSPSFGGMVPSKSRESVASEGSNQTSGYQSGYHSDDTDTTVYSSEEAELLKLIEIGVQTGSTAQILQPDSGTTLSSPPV
# Experimental: Human umbilical vein endothelial cells or HUVEC (Lonza #C2519A) were seeded at 2×10^4 cells/well onto 96-well plates (Corning #3904), in EGM-2 growth medium (Lonza #CC-3162) containing 1% Penicillin Streptomycin (Thermo Fisher #15140-122). HUVEC cells were incubated at 37° C., 5% CO2 for 24 h and then starved for 24 h in serum-free EBM-2 basal medium (Lonza #CC-3156) containing 1% Penicillin Streptomycin. Test compounds were serially diluted to produce an 8-point dose curve in fresh serum-free medium to a final concentration of 0.3% DMSO (vehicle) and added to the cells and incubated for 1 h. Cells were then stimulated with 100 ng/mL recombinant human VEGF165 (R&D Systems #293-VE-500) for 5 min, washed with cold PBS, and immediately lysed with 130 μL of cold 1× lysis buffer [20 mM Tris, 137 mM sodium chloride, 2 mM EDTA, 10% glycerol, 1% NP-40 alternative, 1 mM activated sodium orthovanadate, 1 mM PefaBloc SC (Sigma-Aldrich #11429868001), protease/phosphatase inhibitor tablet (Thermo Fisher #A32959)]. Lysates were collected and 100 μL/well added into the human phospho-KDR DuoSet IC ELISA (R&D Systems #DYC1766-2). Assay was performed according to manufacturer's instructions and sample phospho-KDR concentrations were extrapolated using human phospho-KDR control (R&D Systems #841421) as a standard. Positive control wells (100% activity) contained VEGF165-stimulated, DMSO-treated cell lysates. Negative control wells (0% activity) contained non-stimulated cell lysates. IC50 values were calculated by nonlinear regression analysis using a 4-parameter logistic curve fit in ActivityBase XE (IDBS).
# [6] = biological target: Human Axl (residues H473-A894 with Q764R) (Homo sapiens (Human), UniProt P30530, Q764R); experiment: Human AXL kinase assay (33P radiometric, KinaseProfiler); type: biochemical; settings: 10 μM ATP
# Chain of Human Axl (residues H473-A894 with Q764R) (P30530 473-894 Q764R): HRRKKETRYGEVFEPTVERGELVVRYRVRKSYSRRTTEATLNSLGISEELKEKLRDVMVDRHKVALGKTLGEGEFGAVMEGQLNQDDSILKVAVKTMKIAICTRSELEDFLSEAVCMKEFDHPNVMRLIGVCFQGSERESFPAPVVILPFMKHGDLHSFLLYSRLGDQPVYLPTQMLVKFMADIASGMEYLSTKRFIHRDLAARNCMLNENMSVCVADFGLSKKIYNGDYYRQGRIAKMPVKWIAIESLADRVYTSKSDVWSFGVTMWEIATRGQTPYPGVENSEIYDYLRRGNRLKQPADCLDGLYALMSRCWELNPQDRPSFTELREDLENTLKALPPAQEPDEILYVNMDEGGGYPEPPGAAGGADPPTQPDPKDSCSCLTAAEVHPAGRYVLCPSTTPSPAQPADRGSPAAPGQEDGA
# Experimental: as §1
# Human Axl (residues H473-A894 with Q764R, 161 nM) was incubated with 8 mM MOPS pH 7.0, 0.2 mM EDTA, 250 μM KKSRGDYMTMQIG (SEO ID NO. 43) 10 mM magnesium acetate and 10 μM [γ-33P-ATP]. The reaction was initiated by the addition of the Mg/ATP mix. After incubation for 40 minutes at room temperature, the reaction was stopped by the addition of phosphoric acid to a concentration of 0.5%. A reaction aliquot of 10 μL was then spotted onto a P30 filtermat and washed four times for 4 minutes in 0.425% phosphoric acid and once in methanol prior to drying and scintillation counting. Incorporated ^33P was measured using the Wallac Microbeta scintillation counter (Perkin Elmer).
# Chain of Human Mer (residues R557-E882 with H628Q and R794A) (Q12866 557-882, stated change not applied): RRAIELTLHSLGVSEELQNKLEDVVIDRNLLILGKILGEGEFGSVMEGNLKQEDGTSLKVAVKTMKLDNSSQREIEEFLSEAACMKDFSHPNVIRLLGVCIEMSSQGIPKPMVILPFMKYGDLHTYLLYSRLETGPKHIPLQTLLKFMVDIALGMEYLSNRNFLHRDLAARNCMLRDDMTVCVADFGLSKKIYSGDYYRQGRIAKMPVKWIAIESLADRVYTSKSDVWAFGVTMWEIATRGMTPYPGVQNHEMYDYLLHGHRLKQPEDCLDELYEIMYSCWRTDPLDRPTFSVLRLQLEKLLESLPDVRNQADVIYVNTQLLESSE
SMILES,pIC50 [1],pIC50 [2],pIC50 [3],pIC50 [4],pIC50 [5],pIC50 [6]
"COc1cc2nccc(Oc3ccc(NC(=O)C4(C(=O)Nc5ccc(F)cc5)CC4)cc3)c2cc1C(=O)NC[C@@H]1CCCN1 [Compound 22, 1-N′-(4-fluorophenyl)-1-N-[4-[7-methoxy-6-[[(2S)-pyrrolidin-2-yl]methylcarbamoyl]quinolin-4-yl]oxyphenyl]cyclopropane-1,1-dicarboxamide]",≥ 8.00,≥ 8.00,≥ 8.00,7.00 to 8.00,7.00 to 8.00,–
"COc1cc2nccc(Oc3ccc(NC(=O)C4(C(=O)Nc5ccc(F)cc5)CC4)cc3)c2cc1C(=O)NCCN1CCOCC1 [Compound 12, 1-N′-(4-fluorophenyl)-1-N-[4-[7-methoxy-6-(2-morpholin-4-ylethylcarbamoyl)quinolin-4-yl]oxyphenyl]cyclopropane-1,1-dicarboxamide]",≥ 8.00,≥ 8.00,≥ 8.00,7.00 to 8.00,≥ 8.00,–
"COc1cc2nccc(Oc3ccc(NC(=O)C4(C(=O)Nc5ccc(F)cc5)CC4)cc3)c2cc1C(=O)NCCN1CCCCC1 [Compound 11, 1-N′-(4-fluorophenyl)-N-[4-[7-methoxy-6-(2-piperidin-1-ylethylcarbamoyl)quinolin-4-yl]oxyphenyl]cyclopropane-1,1-dicarboxamide]",≥ 8.00,≥ 8.00,≥ 8.00,7.00 to 8.00,≥ 8.00,–
"COc1cc2nccc(Oc3ccc(NC(=O)C4(C(=O)Nc5ccc(F)cc5)CC4)cc3)c2cc1-c1cccn1C(=O)OC(C)(C)C [Compound 181, tert-butyl 2-[4-[4-[[1-[(4-fluorophenyl)carbamoyl]cyclopropanecarbonyl]amino]phenoxy]-7-methoxyquinolin-6-yl]pyrrole-1-carboxylate]",7.00 to 8.00,7.00 to 8.00,–,–,–,6.00 to 7.00

# Continued, values first:
pIC50 [1],pIC50 [2],pIC50 [3],pIC50 [4],pIC50 [5],pIC50 [6],SMILES
7.00 to 8.00,7.00 to 8.00,–,–,–,6.00 to 7.00,"NC(=O)c1cc2c(Oc3ccc(NC(=O)C4(C(=O)Nc5ccc(F)cc5)CC4)cc3)ccnc2cc1Cl [Compound 68, 1-N-[4-(6-carbamoyl-7-chloroquinolin-4-yl)oxyphenyl]-1-N′-(4-fluorophenyl)cyclopropane-1,1-dicarboxamide]"
< 6.00,< 6.00,–,–,–,< 6.00,"Cc1cc2c(Oc3ccc(NC(=O)C4(C(=O)Nc5ccc(F)cc5)CC4)cc3)ccnc2cc1C(=O)O [Compound 141, 4-[4-[[1-[(4-fluorophenyl)carbamoyl]cyclopropanecarbonyl]amino]phenoxy]-6-methylquinoline-7-carboxylic acid]"
6.00 to 7.00,7.00 to 8.00,–,–,–,6.00 to 7.00,"O=C(O)c1ccc2c(Oc3ccc(NC(=O)C4(C(=O)Nc5ccc(F)cc5)CC4)cc3)ccnc2c1 [Compound 163, 4-[4-[[1-[(4-fluorophenyl)carbamoyl]cyclopropanecarbonyl]amino]phenoxy]quinoline-7-carboxylic acid]"
7.00 to 8.00,7.00 to 8.00,–,–,–,6.00 to 7.00,"NC(=O)c1cc2c(Oc3ccc(NC(=O)C4(C(=O)Nc5ccc(F)cc5)CC4)cc3)ccnc2cc1Br [Compound 69, 1-N-[4-(7-bromo-6-carbamoylquinolin-4-yl)oxyphenyl]-1-N′-(4-fluorophenyl)cyclopropane-1,1-dicarboxamide]"
≥ 8.00,≥ 8.00,≥ 8.00,7.00 to 8.00,7.00 to 8.00,–,"COc1cc2nccc(Oc3ccc(NC(=O)C4(C(=O)Nc5ccc(F)cc5)CC4)cc3)c2cc1C(=O)NC[C@H]1CCCN1 [Compound 21, 1-N′-(4-fluorophenyl)-1-N-[4-[7-methoxy-6-[[(2R)-pyrrolidin-2-yl]methylcarbamoyl]quinolin-4-yl]oxyphenyl]cyclopropane-1,1-dicarboxamide]"
